According to patent US4203986A, “M-Trifluoro-methylphenyl-piperazine” (Metabio-Joullie, priority 1977, dated 1980):
Where two headings read alike, the source gives them in different places.

Assays:
[1] = tested on: coughing induced by aqueous citric acid aerosol; assay: Antitussive action in the guinea pig (citric acid aerosol); type: in vivo; settings: for antitussive activity (in words): oral
Source text: The technique used is that of SIECKMANN (W.) (in "Notions techniques de Pharmacologie generale" by Michel COLOT, page 75, Masson, Edit, 1972).
The guinea pigs .female. of mean weight 400 g, unanaesthesised, are subjected to the tussigenic effect of aerosols of a 7.5% aqueous citric acid solution. The animals are placed one by one in a cylindrical chamber having at its two extremities two canals, one serving as entrance for the aerosol and the other as its exit.
On the exit tube there is a lateral connection to a MERCURY gas pressure differential gauge joined to an RACIA counter. An adjustable screw clamp placed on the exit tube downstream of the lateral canal permits regulation of the sensitivity of the system such that the normal respiration of the animal only registers very weakly and that displacement of air in the chamber provoked by coughing attack is recorded clearly in the form of vertical traces.
Each guinea pig is first submitted to a control test for 5 minutes. One hour later it receives the test compound. It is replaced in the chamber for 5 minutes, 1 hour after oral administration of the compound.
The number of coughing attacks before and after administration is counted and the percentage inhibition is calculated.

[2] = tested on: coughing by stimulation of the superior larynx nerve; assay: Antitussive action in the cat (stimulation of the superior larynx nerve); type: in vivo; settings: for effect on coughing in cats (in words): i.v.
Protocol: The cats all thriving, male or female of weight between 1.5 and 2.5 kg (test on 10 cats) are anaesthesised by nembutal at a dose of 30 mg/kg interperitoneally.
A cannula having three branches is placed in the trachea. Two of the branches are connected to a device for registering intratracheal pressure (MERCURY gas pressure gauge connected to an RACIA polygraph) The third branch allows elimination of part of the respiratory volume.
A cannula is placed in the femoral vein for administration of the test substances.
The stimulation parameters are as follows: frequency: 5 cycles per sec, amplitude: 5 millisec, voltage: 4 to 6 volts, duration: 15 to 45 sec. (according to the sensitivity of the animal).
There are carried a minimum of 3 stimulations spaced by 5 minutes and provoking coughing attacks of the same severity. The compound is then administered intravenously. The stimulation is then carried out every 5 minutes. If the compound reduces or suppresses the coughing the stimulation is continued until the reappearance of coughing to approximately the same degree as the initial coughing.
The results are expressed as a percentage reduction in the number of coughs.

[3] = Acute toxicity in Mice; type: in vivo, mice (SWISS, EOPS, NMRI/Han, female); settings: for LD50 at 360 h / MTD at 360 h: mouse, in vivo; for LD50 at 360 h / LD 50: method of KARBER and BEHRENS; for MTD at 360 h: read-out: LD 0 (maximum dose tolerated); for LD 0 (maximum dose tolerated) / LD 50: 21600 min
Protocol: The compounds are administered in increasing doses (in arithmetic progression) to groups of five .female. SWISS, EOPS, NMRI/Han mice of the EVIC CEBA strain and having a mean weight of 22 g.
For intravenous administration the compounds are dissolved in distilled water, for oral administration they are suspended in 10% gum arabic solution (volume administered: 0.5 ml/22 g body weight).
The LD 50's are calculated according to the method of KARBER and BEHRENS (B.) (Arch. Exp. Path. Pharmakol. 1935, 177, 379-388).
For each administration method, there is indicated:
LD 0 or maximum dose tolerated.
LD 100 or minimum lethal dose.
The number of animals surviving in the different groups is definitively verified 15 days after administrating the compounds.

Structure (SMILES) | LD50 at 360 h ([3]; po, oral administration) [mg/kg] | MTD at 360 h ([3]; po, oral administration) [mg/kg] | LD 100 (minimum lethal dose) ([3]; oral administration) [mg/kg] | LD 100 (minimum lethal dose) ([3]; intravenous administration) [mg/kg] | LD50 at 360 h ([3]; iv, intravenous administration) [mg/kg] | MTD at 360 h ([3]; iv, intravenous administration) [mg/kg] | LD 0 (maximum dose tolerated) ([3]; oral administration) [mg/kg] | LD 50 ([3]; oral administration) [mg/kg] | other results
COc1ccc2c3c1O[C@H]1[C@@H](O)C=C[C@H]4[C@@H](C2)N(C)CC[C@@]341 [Codeine, reference compound] | – | – | – | – | – | – | – | – | inhibition in vivo at 35 mg/kg ([1]; Cavia porcellus, po, 1 h, 35 mg/kg p.o., read-out: Percentages of inhibition of coughing): 64%; inhibition in vivo at 70 mg/kg ([1]; Cavia porcellus, po, 1 h, 70 mg/kg p.o., read-out: Percentages of inhibition of coughing): 71%; % maximum reduction in the number of coughs ([2]; 3.5 mg/kg i.v.): 100%
OCC(O)CN1CCN(c2ccc(F)c(C(F)(F)F)c2)CC1 (stereo not shown) [LJ 1121, 3-[4-(3-Trifluoromethyl-4-fluorophenyl)-piperazino]propane-1,2-diol] | 925 | 500 | 1250 | – | – | – | – | – | –
OCC(O)CN1CCN(c2cccc(C(F)(F)F)c2)CC1 (stereo not shown) [LJ 1142, 3-[4-(m-Trifluoromethylphenyl)-piperazino]-propane-1,2-diol] | 1120 | 750 | 1500 | 300 | 252 | 225 | – | – | –
OC1CCCCC1N1CCN(c2cccc(C(F)(F)F)c2)CC1 (stereo not shown) [LJ 1143, 2-[4-(m-Trifluoromethylphenyl)-piperazino]-cyclohexanol] | 625 | 250 | 1000 | 81 | 69 | 56 | – | – | –
OC(CN1CCN(c2cccc(C(F)(F)F)c2)CC1)CN1CCN(c2cccc(C(F)(F)F)c2)CC1 [LJ 1145, 1,3-bis[4-(m-Trifluoromethylphenyl)-piperazino]-propan-2-ol] | – | – | 1000 | – | – | – | 200 | 580 | inhibition in vivo at 58 mg/kg ([1]; Cavia porcellus, po, 1 h, 58 mg/kg p.o., read-out: Percentages of inhibition of coughing): 58%
OC(CN1CCN(c2cccc(C(F)(F)F)c2)CC1)CN1CCN(c2cccc(C(F)(F)F)c2)CC1 [LJ 1152, 1,3-bis[4-(m-Trifluoromethylphenyl)-piperazino]-propan-2-ol] | – | – | 375 | 50 | 36 | 25 | 125 | 225 | inhibition in vivo at 22 mg/kg ([1]; Cavia porcellus, po, 1 h, 22 mg/kg p.o., read-out: Percentages of inhibition of coughing): 64%; inhibition in vivo at 72 mg/kg ([1]; Cavia porcellus, po, 1 h, 72 mg/kg p.o., read-out: Percentages of inhibition of coughing): 75%; antitussive activity (in words) [1]: also active if not more active than codeine; % maximum reduction in the number of coughs ([2]; 3.6 mg/kg i.v.): 76%; % maximum reduction in the number of coughs ([2]; 7.2 mg/kg i.v.): 100%; effect on coughing in cats (in words) [2]: comparable with those of codeine
OC(CN1CCN(c2cccc(C(F)(F)F)c2)CC1)CN1CCN(c2cccc(C(F)(F)F)c2)CC1 [LJ 1154, 1,3-bis[4-(m-Trifluoromethylphenyl)-piperazino]-propan-2-ol] | – | – | 200 | 44 | – | – | 50 | 135 | inhibition in vivo at 6.75 mg/kg ([1]; Cavia porcellus, po, 1 h, 6.75 mg/kg p.o., read-out: Percentages of inhibition of coughing): 66%; inhibition in vivo at 13.5 mg/kg ([1]; Cavia porcellus, po, 1 h, 13.5 mg/kg p.o., read-out: Percentages of inhibition of coughing): 78%; antitussive activity (in words) [1]: also active if not more active than codeine; LD 0 (maximum dose tolerated) ([3]; intravenous administration): 25 mg/kg; LD 50 ([3]; intravenous administration): 37.5 mg/kg; % maximum reduction in the number of coughs ([2]; 4 mg/kg i.v.): 80%; % maximum reduction in the number of coughs ([2]; 8 mg/kg i.v.): 100%; effect on coughing in cats (in words) [2]: comparable with those of codeine
